Source: the NIST ThermoML archive (doi:10.1016/j.fluid.2008.02.018)
Values joined by “and” are separate entries in the source; they are usually repeats but may differ in a detail not shown here. Equal entries are not always repeated. ± gives the expanded uncertainty stated by the source.

Key:
[1] = Liquid; for mass density: 101.33 kPa
[2] = refractive index (Na D-line) (dimensionless); details: 298.15 K; 101.33 kPa; Liquid; Standard Abbe refractometry

| mass density ([1]; 298.15 K) [kg/m3] | vapor or sublimation pressure ([1]; 298.15 K) [kPa] | vapor or sublimation pressure ([1]; 308.15 K) [kPa] | vapor or sublimation pressure ([1]; 318.15 K) | refractive index [2] | SMILES |
| --- | --- | --- | --- | --- | --- |
| 1250.9 ± 1.7 | 10.81 ± 0.23 | 17.02 ± 0.31 | 25.77 ± 0.42 kPa | 1.4421 ± 0.0007 | ClCCCl [1,2-dichloroethane] |
| 943 ± 1.2 | 0.64 ± 0.06 | 1.15 ± 0.08 | 1.91 ± 0.09 kPa | 1.4482 ± 0.0007 | O=C1CCCCC1 [cyclohexanone] |
| 945.3 ± 1.2 | 1.72 ± 0.09 | 2.8 ± 0.1 | 4.64 ± 0.13 kPa | 1.4347 ± 0.0007 | O=C1CCCC1 [cyclopentanone] |
| 1475.9 ± 2.1 | 26.44 ± 0.48 | 40.19 ± 0.65 | 58.69 ± 0.87 kPa and 58.68 ± 0.87 kPa | 1.4428 ± 0.0007 | ClC(Cl)Cl [trichloromethane] |
